# Results reported in ChEMBL document CHEMBL1201862, “PubChem BioAssay data set” (2004).
# Active and inactive are the calls of the source.
# Columns and labels:
# [1] = cells; format: functional
# [2] = target: Cytochrome P450 2C9 (Homo sapiens, UniProt P11712)
# [3] = Luminescence Cell-Based Dose Retest to Confirm Inhibitors of Cancer Stem Cells. [Related pubchem assays (depositor defined):AID2717, AID2721]; format: functional; settings: Homo sapiens
# [4] = microbe, parasite or virus in culture; format: functional; settings: Mycobacterium tuberculosis
# [5] = target: T1, Leucine aminopeptidase (Plasmodium falciparum 3D7, UniProt Q8IL11); assay: P. falciparum M17LAP inhibitors, primary screen, biochemical, fluorogenic H-Leu-NHMec substrate, 1536-well (AID 1619); format: functional
# T1 sequence (Q8IL11 whole entry): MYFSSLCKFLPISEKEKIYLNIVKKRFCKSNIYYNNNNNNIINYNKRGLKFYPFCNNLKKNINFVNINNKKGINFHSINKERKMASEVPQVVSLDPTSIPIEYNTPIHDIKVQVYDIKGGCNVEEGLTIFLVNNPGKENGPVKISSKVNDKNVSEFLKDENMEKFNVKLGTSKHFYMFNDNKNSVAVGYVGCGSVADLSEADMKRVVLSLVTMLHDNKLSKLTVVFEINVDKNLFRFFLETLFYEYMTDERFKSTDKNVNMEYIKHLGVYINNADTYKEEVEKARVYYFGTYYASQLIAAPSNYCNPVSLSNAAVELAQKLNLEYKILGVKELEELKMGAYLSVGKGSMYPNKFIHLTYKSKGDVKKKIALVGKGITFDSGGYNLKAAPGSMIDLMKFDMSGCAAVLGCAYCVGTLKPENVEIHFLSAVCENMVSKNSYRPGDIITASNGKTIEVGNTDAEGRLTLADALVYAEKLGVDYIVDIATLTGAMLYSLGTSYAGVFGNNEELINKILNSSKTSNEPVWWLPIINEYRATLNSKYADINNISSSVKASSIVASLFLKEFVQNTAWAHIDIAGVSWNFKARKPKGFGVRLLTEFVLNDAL
# [6] = Luminescence Cell-Based Dose Confirmation HTS to Identify Inhibitors of Platelet Dense Granule Release. [Related pubchem assays: 1663 (Primary HTS), 1678 (Summary of Project)]; format: functional
# [7] = target: T2, Cytochrome P450 1A2 (Homo sapiens, UniProt P05177);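 also: PubChem cytochrome P450 panel assay, CYP1A2 panel member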
# T2 sequence (P05177 whole entry): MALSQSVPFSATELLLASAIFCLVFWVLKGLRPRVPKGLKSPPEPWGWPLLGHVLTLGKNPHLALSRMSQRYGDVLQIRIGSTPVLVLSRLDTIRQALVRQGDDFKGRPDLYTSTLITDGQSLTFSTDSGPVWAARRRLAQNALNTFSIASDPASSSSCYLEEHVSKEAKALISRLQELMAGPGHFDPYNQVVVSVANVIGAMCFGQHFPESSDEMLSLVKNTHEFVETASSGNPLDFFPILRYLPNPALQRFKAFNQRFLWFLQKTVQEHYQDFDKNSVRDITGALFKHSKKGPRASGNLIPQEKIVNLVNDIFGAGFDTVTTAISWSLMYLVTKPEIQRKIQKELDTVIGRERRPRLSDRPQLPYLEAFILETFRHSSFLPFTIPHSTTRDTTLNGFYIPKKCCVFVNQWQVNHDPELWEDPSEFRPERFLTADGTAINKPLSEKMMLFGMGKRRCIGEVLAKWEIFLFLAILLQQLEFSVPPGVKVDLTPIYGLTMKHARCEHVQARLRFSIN
# [8] = target: Cytochrome P450 2D6 (Homo sapiens, UniProt P10635);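 also: CYP2D6 member of a cytochrome P450 panel assay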
# Cytochrome P450 2D6, sequence (P10635 whole entry): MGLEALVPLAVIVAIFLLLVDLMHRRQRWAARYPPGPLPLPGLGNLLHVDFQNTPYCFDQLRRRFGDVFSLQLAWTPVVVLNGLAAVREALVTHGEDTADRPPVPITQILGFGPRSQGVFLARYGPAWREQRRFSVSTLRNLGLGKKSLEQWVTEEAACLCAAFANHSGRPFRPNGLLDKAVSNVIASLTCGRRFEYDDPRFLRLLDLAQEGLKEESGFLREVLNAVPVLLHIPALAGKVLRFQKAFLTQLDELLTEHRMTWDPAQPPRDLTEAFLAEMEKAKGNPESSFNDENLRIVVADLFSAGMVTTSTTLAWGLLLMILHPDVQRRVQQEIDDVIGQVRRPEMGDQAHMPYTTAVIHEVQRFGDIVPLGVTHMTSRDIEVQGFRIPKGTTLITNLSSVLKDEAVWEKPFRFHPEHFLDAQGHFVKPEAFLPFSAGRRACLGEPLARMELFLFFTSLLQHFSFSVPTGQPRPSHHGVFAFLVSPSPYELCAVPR
# [9] = target: Luciferin 4-monooxygenase (Photinus pyralis, UniProt P08659); assay: firefly luciferase enzyme inhibitors, dose response, biochemical, luminescence (AID 1891)
# Luciferin 4-monooxygenase, sequence (P08659 whole entry): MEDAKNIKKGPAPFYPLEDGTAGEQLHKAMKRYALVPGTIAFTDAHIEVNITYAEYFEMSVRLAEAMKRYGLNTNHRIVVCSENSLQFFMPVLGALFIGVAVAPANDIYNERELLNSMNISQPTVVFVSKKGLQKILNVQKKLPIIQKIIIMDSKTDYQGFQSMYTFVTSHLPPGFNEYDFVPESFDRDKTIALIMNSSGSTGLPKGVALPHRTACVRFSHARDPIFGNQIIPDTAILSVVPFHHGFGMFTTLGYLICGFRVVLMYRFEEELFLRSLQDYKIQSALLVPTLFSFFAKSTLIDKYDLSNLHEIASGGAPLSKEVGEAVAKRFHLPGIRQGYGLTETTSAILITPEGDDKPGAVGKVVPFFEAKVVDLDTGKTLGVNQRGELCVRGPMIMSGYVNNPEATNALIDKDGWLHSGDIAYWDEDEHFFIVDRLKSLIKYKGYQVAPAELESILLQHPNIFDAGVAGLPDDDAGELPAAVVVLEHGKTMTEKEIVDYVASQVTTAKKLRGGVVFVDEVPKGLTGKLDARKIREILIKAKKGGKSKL
# [10] = NIH-3T3 fibroblast cytotoxicity, dose response, cytotoxicity control, cell-based, fluorescence, Alamar Blue, secondary assay (AID 2327); format: functional;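 also: NIH-3T3 mouse fibroblasts cultured with fluconazole at 8 µg/mL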
# [11] = C. albicans growth with fluconazole, confirmation, fluorescence, retest (AID 2467); format: functional, cell-based
# [12] = target: Cytochrome P450 2C19 (Homo sapiens, UniProt P33261); assay: Cytochrome panel assay with activity outcomes. Panel member name: p450-cyp2c19 Compounds with AC50 equal or less than 10 uM are considered active; format: functional; settings: read-out: AC50
# Cytochrome P450 2C19, sequence (P33261 whole entry): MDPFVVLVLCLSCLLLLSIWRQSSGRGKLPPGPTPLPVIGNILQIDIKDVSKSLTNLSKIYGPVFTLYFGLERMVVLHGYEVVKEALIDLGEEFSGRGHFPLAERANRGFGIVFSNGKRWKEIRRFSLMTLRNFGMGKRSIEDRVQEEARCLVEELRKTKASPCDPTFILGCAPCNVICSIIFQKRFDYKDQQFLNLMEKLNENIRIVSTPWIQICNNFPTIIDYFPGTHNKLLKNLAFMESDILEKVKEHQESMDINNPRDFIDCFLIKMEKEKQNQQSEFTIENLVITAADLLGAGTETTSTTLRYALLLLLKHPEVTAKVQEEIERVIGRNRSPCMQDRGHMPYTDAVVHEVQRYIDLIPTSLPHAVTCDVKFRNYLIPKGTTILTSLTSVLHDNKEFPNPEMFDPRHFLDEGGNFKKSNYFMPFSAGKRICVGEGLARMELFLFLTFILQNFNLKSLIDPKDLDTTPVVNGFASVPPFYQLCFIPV
# [13] = system: H9c2; assay: cells; format: functional, cell-based; settings: Rattus norvegicus, H9c2, Myocardium;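 also: confirmatory concentration-response retest of ultra-high-throughput screening hits for modulation of myocardial damage; cell death induced by hydrogen peroxide oxidative stress; compound pretreatment for 60 min then peroxide exposure for 2 h; potency is for protecting the cells against peroxide damage rather than for killing them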
# [14] = target: Cytochrome P450 3A4 (Homo sapiens, UniProt P08684);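 also: CYP3A4 tested as one member of a cytochrome P450 panel screen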
# Cytochrome P450 3A4, sequence (P08684 whole entry): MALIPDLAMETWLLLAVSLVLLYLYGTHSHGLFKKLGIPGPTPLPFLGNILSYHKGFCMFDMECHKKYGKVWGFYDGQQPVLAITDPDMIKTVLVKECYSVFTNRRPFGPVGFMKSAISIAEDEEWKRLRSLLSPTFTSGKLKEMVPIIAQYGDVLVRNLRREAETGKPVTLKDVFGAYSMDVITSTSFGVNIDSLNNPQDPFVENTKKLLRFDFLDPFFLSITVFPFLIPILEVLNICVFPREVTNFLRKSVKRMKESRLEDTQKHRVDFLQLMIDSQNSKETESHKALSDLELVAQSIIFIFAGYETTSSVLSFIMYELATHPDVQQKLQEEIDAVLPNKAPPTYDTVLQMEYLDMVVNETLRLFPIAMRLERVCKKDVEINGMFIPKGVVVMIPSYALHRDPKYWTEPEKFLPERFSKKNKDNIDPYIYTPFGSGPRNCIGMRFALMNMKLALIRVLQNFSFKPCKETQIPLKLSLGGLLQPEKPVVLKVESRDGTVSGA
# [15] = system: INS1; assay: beta cell apoptosis inhibitors, cytokine rescue, dose response, luminescence, retest (AID 449756); format: functional, cell-based; settings: Rattus norvegicus;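 also: cell death triggered by IL-1 beta plus TNF-alpha plus IFN-gamma mixture; protective hits raise ATP signal compared with cytokine alone wells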
# Cytochrome P450 2C9, sequence (P11712 whole entry): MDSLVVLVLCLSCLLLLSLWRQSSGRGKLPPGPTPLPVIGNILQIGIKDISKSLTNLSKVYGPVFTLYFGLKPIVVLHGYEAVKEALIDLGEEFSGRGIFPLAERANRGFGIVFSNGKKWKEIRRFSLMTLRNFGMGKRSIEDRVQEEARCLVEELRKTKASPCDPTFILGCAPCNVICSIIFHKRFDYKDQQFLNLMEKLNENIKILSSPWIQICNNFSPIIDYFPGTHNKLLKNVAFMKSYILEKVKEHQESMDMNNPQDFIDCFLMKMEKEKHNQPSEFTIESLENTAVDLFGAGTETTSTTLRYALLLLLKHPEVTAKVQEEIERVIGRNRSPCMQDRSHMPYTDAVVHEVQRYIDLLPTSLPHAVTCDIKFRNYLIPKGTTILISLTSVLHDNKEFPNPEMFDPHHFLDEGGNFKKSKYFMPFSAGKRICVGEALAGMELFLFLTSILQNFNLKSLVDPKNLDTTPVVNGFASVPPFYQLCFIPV
smiles,measurement,setting,value
CCCNC(=O)COC(=O)c1cc2c(=O)n3ccccc3nc2s1,IC50,[1],39.2 µM (active)
Cc1cc2nnc(SCC(=O)OC(C)C)n2c2ccccc12,AC50,[2],inconclusive
COc1cc(/C=C(\C#N)C(=O)NCC2CCCO2)c([N+](=O)[O-])cc1OC (stereo not given),AC50,[2],inconclusive
CCCOc1ccc2c(c1)C(=NN=C(N)N)c1cc(OCCC)ccc1-2,AC50,[3],3.33 µM (active)
same,CC50,[4],12.2 µM (active)
Cc1cc(NS(=O)(=O)c2ccc(NC(=O)c3cnc4scc(C)n4c3=O)cc2)nc(C)n1,IC50,[5],23.1 µM (active)
CCOc1ccc(CN(C(=O)c2oc3ccccc3c2C)C2CCS(=O)(=O)C2)cc1 (stereo not given),EC50,[6],> 112 µM (not active)
same,AC50,[7],14.1 µM (inconclusive)
same,AC50,[8],14.1 µM (inconclusive)
same,EC50,[9],28.3 µM (active)
same,EC50,[10],> 160 µM (inconclusive)
same,EC50,[11],> 38 µM (not active)
CCC(C)NC(=O)NC(=O)N(C1CCCCC1)S(C)(=O)=O (stereo not given),AC50,[12],17.8 µM (inconclusive)
same,AC50,[2],inconclusive
CC(C)(C)NC(=O)c1cc(NC(=O)c2cccs2)cc(NC(=O)c2cccs2)c1,IC50,[13],11.1 µM (active)
C[C@H](NC(=O)c1[nH]cnc1C(=O)NCC(=O)OCc1ccccc1)C(=O)OCc1ccccc1,IC50,[13],19.4 µM (active)
COC(=O)c1cc(OC)c(OC)cc1NC(=O)c1ccc(OC)c(OC)c1,IC50,[13],> 79 µM (inactive)
COc1ccc(S(=O)(=O)N(C)CC(=O)NCc2ccco2)cc1,AC50,[14],15.8 µM (inconclusive)
same,AC50,[2],inconclusive
Clc1ccc(Cl)c(OCc2cc(-c3ccccc3Cl)on2)c1,AC50,[12],0.891 µM (inconclusive)
same,AC50,[2],inconclusive
same,AC50,[7],0.282 µM (inconclusive)
Clc1ccc(-c2[nH]ncc2N=Nc2ccccc2)cc1,CC50,[4],> 40 µM (active)
same,AC50,[15],> 120 µM (inactive)
Cc1ccc(-c2ccc(=O)n(CC(=O)NCCN3CCCCC3C)n2)cc1 (stereo not given),AC50,[12],35.5 µM (inconclusive)
same,AC50,[14],17.8 µM (inconclusive)
same,AC50,[2],inconclusive
O=C(OCC(=O)N1CCCCC1)c1cc2ccccc2cc1O,IC50,[1],5.15 µM (active)
NC(=O)c1ccc(Nc2nnc(-c3ccc(O)cc3)c3ccccc23)cc1,EC50,[10],> 150 µM (inactive)
same,EC50,[11],> 38 µM (not active)
same,IC50,[13],15 µM (active)
CCOC(=O)Cn1c(=S)[nH]c2c(oc3ccc(Cl)cc32)c1=O,IC50,[5],19.5 µM (active)
CSc1ncc(C(=O)Nc2ccc(Br)cn2)c(C)n1,CC50,[4],> 40 µM (active)
CC1Nc2ncnc(N3CCN(c4ccccc4)CC3)c2N(Cc2ccc(Br)cc2)C1=O (stereo not given),CC50,[4],> 40 µM (active)
same,IC50,[13],> 79 µM (inactive)
